Source: paper PMC12838199, “A highly conserved ABC transporter mediates cello-oligosaccharide uptake in the extremely thermophilic, lignocellulolytic bacterium Anaerocellum bescii (f. Caldicellulosiruptor bescii)” (Applied and Environmental Microbiology, 2025)

Experiments:
Assay type in all cases: binding
[1] = target: T1, Athe_0597 (Caldicellulosiruptor bescii, UniProt A0ABY1SBW7); assay: isothermal titration calorimetry; settings: 25 °C; 50 mM HEPES, 300 mM NaCl, pH 7.0 (storage and characterization buffer); single-site model
T1 construct: gene SAMN05216240_2513; IMAC purified after 68 °C heat treatment
T1 sequence (A0ABY1SBW7 entry or part of it): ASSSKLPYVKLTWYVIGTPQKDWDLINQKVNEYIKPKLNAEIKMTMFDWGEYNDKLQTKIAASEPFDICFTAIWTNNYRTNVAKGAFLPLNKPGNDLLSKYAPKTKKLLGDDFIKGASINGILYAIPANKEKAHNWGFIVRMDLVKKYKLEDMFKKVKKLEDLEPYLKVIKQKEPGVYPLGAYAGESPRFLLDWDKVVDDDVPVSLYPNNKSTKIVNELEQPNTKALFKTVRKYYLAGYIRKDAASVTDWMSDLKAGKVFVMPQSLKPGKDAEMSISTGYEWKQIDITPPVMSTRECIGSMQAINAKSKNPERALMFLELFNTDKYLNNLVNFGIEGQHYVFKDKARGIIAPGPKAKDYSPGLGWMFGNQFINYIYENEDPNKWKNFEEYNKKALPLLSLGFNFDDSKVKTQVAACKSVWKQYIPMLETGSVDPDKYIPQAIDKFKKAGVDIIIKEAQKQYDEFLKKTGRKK
Excerpt: isothermal titration calorimetry on Athe_0597

[2] = target: T2, Athe_0598 (Caldicellulosiruptor bescii, UniProt A0ABY1SBM3); assay: differential scanning calorimetry; settings: 5 mM sugar, 2 mg/mL protein, 50 mM HEPES, 300 mM NaCl, pH 7.0; 4 °C/min
T2 construct: gene SAMN05216240_2512; IMAC purified after 68 °C heat treatment
T2 sequence (A0ABY1SBM3 entry or part of it): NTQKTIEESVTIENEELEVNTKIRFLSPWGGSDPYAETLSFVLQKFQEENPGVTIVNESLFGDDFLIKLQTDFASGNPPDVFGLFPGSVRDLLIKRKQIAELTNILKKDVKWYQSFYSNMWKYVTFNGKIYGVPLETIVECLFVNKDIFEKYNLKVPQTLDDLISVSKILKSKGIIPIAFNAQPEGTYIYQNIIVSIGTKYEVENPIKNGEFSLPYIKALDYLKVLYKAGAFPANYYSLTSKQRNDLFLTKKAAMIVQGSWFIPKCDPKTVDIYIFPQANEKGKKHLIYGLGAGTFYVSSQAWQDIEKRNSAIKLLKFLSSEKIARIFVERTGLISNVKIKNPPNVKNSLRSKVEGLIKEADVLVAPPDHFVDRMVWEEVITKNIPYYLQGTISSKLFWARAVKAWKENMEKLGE
Excerpt: differential scanning calorimetry on Athe_0598

[3] = target: T1, Athe_0597; assay: differential scanning calorimetry; settings: 5 mM sugar, 2 mg/mL protein, 50 mM HEPES, 300 mM NaCl, pH 7.0; 4 °C/min
Excerpt: differential scanning calorimetry on Athe_0597

[4] = target: T2, Athe_0598; assay: isothermal titration calorimetry; settings: 25 °C; 50 mM HEPES, 300 mM NaCl, pH 7.0 (storage and characterization buffer); single-site model
Excerpt: isothermal titration calorimetry on Athe_0598

Row | Structure (SMILES) | Kd [1] | ΔTm (°C) [2] | ΔTm (°C) [3] | Kd [4]
1 | OC[C@H]1O[C@@H](O[C@H]2[C@H](O)[C@@H](O)C(O)O[C@@H]2CO)[C@H](O)[C@@H](O)[C@@H]1O (stereo partly shown) [G2, cellobiose] | 0.228 ± 0.1 µM | 8.53 °C | 7.57 °C | 2.84 ± 0.36 µM
2 | OC[C@H]1O[C@@H](O[C@H]2[C@H](O)[C@@H](O)[C@H](O[C@H]3[C@H](O)[C@@H](O)C(O)O[C@@H]3CO)O[C@@H]2CO)[C@H](O)[C@@H](O)[C@@H]1O (stereo partly shown) [G3, cellotriose] | 0.942 ± 0.12 µM |  | 6.89 °C | 
3 | OC[C@H]1O[C@@H](O[C@H]2[C@H](O)[C@@H](O)[C@H](O[C@H]3[C@H](O)[C@@H](O)[C@H](O[C@H]4[C@H](O)[C@@H](O)C(O)O[C@@H]4CO)O[C@@H]3CO)O[C@@H]2CO)[C@H](O)[C@@H](O)[C@@H]1O (stereo partly shown) [G4, cellotetraose] | 1.97 ± 0.52 µM |  | 9.30 °C | 
4 | OC[C@H]1O[C@@H](O[C@H]2[C@H](O)[C@@H](O)[C@H](O[C@H]3[C@H](O)[C@@H](O)[C@H](O[C@H]4[C@H](O)[C@@H](O)[C@H](O[C@H]5[C@H](O)[C@@H](O)C(O)O[C@@H]5CO)O[C@@H]4CO)O[C@@H]3CO)O[C@@H]2CO)[C@H](O)[C@@H](O)[C@@H]1O (stereo partly shown) [G5, cellopentaose] | 1.18 ± 0.12 µM |  | 8.72 °C | 
